We go through six compounds from patent publication US12569498B2, “Methods and compositions for the prevention and treatment of ischemia reperfusion injury and infection” (CHILDREN'S NATIONAL MEDICAL CENTER, priority 2019, dated 2026).

The conditions of experiment [1]: literature, cited from earlier work; for testicular myeloperoxidase activity: acutely; for testicular myeloperoxidase activity / long term spermatogenesis: animal models of testicular torsion.
Experiment [2] has as its system CD45+ immune cells in the torsed testis. Briefly: Flow cytometry of CD45+ immune cell infiltrate in testis after testicular torsion. The experiment is classed as in vivo, CD1 mice. The conditions noted are these: cytisine 0.1 μg/gram i.p. 1 hour before torsion; 18 hours after reperfusion; vs mice without cytisine; P<0.0001. The protocol:
(§1) Unilateral testicular torsion was induced in mature male CD1 mice by rotating the right testicle 720 degrees for 2 hours. Treatment with cytisine or varenicline was initiated one hour prior or one hour after the creation of testicular torsion. Testes were harvested 18 hours and 30 days following reperfusion. The acute inflammatory response was quantified with FACS analysis, […], reduced glutathione levels and quantification of the expression of IRI markers. Long term (30 day) outcomes were assessed by histologic evaluation, quantification of the expression of pro-fibrotic genes and measurement of testicular weight.
Mice underwent testicular torsion as previously described (Lysiak 2001). Briefly, mice were anesthetized with isoflurane over a heating pad. […]
Eighteen hours after reperfusion of the testis in the cytisine group and 48 hours after reperfusion in the varenicline group, bilateral testes were harvested, homogenized and digested with digestion solution containing 0.5% FBS, 20 mM HEPES, RPMI Medium, 0.057 U/ml DNase I, 1 mg/ml collagenase b. Cells were washed, counted with a hemocytometer and 1 million then diluted to 1 million cells per mL. […] For each sample 300,000 live cells were counted using BD FACSCalibur (BD Biosciences, San Jose, CA) and analyzed with FlowJo 9.0 software (TreeStar, Ashland, OR).

In experiment [3] the test system is oxidative stress within the testis. Briefly: Myeloperoxidase activity and reduced glutathione levels in testis after testicular torsion. The experiment is classed as in vivo, CD1 mice. To be noted: cytisine an hour prior to onset of torsion; vs untreated controls. The procedure:
Mice underwent testicular torsion as previously described (Lysiak 2001). Briefly, mice were anesthetized with isoflurane over a heating pad. The right testis was delivered through a low scrotal incision and rotated counterclockwise 720 degrees to induce ischemia for 2 hours. […] All animals were injected with long-acting buprenorphine (0.1 mg/kg) for long-term pain control prior to being recovered from anesthesia. […] Mice kept for 30 days after surgery were weighed on a weekly basis.
(§2) Cytisine (Sigma-Aldrich, St. Louis, MO) was administered intraperitoneally at a dose of 0.1 μg/gram either 1 hour before torsion or 1 hour after torsion (1 hour prior to detorsion). Varenicline ([…]) was administered as an intraperitoneal injection one hour after the onset of torsion and then continued every 12 hours for a total of 4 doses.
Tissues were harvested and stored at −80° C. until use. Glutathione reductase activity was measured by use of glutathione reductase assay Kit (Sigma-Aldrich, St. Louis, MO). Testis tissue was homogenized in 5% sulfosalicylic Acid (SSA) solution. Samples were then centrifuged and supernatant was reserved. Supernatants were added to a reaction mixture containing 95 mM potassium phosphate buffer, pH 7.0, 0.95 mM EDTA, 0.038 mg/mL NADPH, 0.031 mg/mL DTNB, 0.115 units/mL glutathione reductase, and 0.24% SSA. Absorbance at 412 nm was recorded. Glutathione results were expressed as nm GSH per mL sample.
Following an ischemic event, the initial inflammatory response is characterized by an increase in oxidative stress and production of reactive oxygen species. In order to determine the effect of cytisine treatment on the level of reactive oxygen species (ROS) following testicular torsion, testicular levels of myeloperoxidase (MPO), a marker of neutrophil activation, and reduced glutathione (GSH) levels (an indirect measure of oxidative stress within the testis) were measured.

A short description of experiment [4]: Testis weight vs contralateral testis 30 days after torsion (testicular atrophy). The experiment is classed as in vivo, CD1 mice. The conditions noted are these: 30 days after reperfusion, vs untreated. The procedure: as §1
(§3) Mice underwent testicular torsion as previously described (Lysiak 2001). Briefly, mice were anesthetized with isoflurane over a heating pad. The right testis was delivered through a low scrotal incision and rotated counterclockwise 720 degrees to induce ischemia for 2 hours. […] All animals were injected with long-acting buprenorphine (0.1 mg/kg) for long-term pain control prior to being recovered from anesthesia. Mice were euthanized either 18 hours or 30 days following torsion. Mice kept for 30 days after surgery were weighed on a weekly basis.
as §2
The degree of testicular atrophy was determined by comparing the weight of the torsed testis to the contralateral control testis 30 days after reperfusion.

Experiment [5] is described as follows: Masson trichrome staining and ImageJ quantification of collagen in testis 30 days after torsion. In kind it is in vivo, CD1 mice. The conditions noted are these: 30 days following torsion, vs untreated, cytisine p<0.01, varenicline p<0.0001. The procedure: as §3, §2
Testis tissue was harvested and stored in 70% ethanol. Fixation, embedding, sectioning, and staining were performed by the research pathology core at George Washington University. Sections were cut at a thickness of […]. Tissues were stained for H&E or Masson trichrome. Photographs were scanned at 20× resolution with Olympus VS120 virtual slide microscope system. TIF images were analyzed with ImageJ Fiji software as previously described (Caetano, Fronza et al. 2016). The color deconvolution plugin was used to perform ImageJ analysis on an area measuring 3000 square pixels. Automatic thresholding was performed. The amount of collagen in each area is expressed as the percentage of blue pixels in the image area taken as an average of 3 non-overlapping measurements.

Experiment [6] relates to pro-fibrotic genes Col1, Col3, Vim, SMA. Briefly: RT-PCR of pro-fibrotic markers in testis 30 days after torsion. The experiment is classed as in vivo, CD1 mice. To be noted: for relative expression of collagen 1 (Col1) / relative expression of collagen 3 (Col3) / relative expression of smooth muscle actin (Sma) / relative expression of vimentin (Vim): 30 days following torsion, vs untreated. The protocol: as §3, §2
RNA was isolated from testis tissue using RNEasy mini kit (Qiagen, Hilden, Germany) using the manufacturer's protocol. RNA concentration was measured with Nanodrop 8000 (Thermo Scientific, Waltham, MA). cDNA was synthesized using Superscript First-Strand Synthesis system for RT-PCR (Invitrogen, Carlsbad, CA) on a GeneAmp PCR System 9700 (Applied Biosystems, Foster City, CA) Real-Real-time PCR was performed using QuantStudio 7 Flex (Applied Biosystems, Foster City, CA). Software Quantstudio Real-Time PCR Software (Thermo Fisher Scientific, Waltham, MA). TaqMan Gene Expression Assays (Applied Biosystems, Foster City, CA). Standard TaqMan primers were used for Col1, Col3, Vim, SMA.

The conditions of experiment [7]: cited from earlier work.
Another experiment addresses α7nAChR (Homo sapiens, UniProt P36544). The conditions noted are these: peak concentrations in smokers / levels with therapeutic dosing in humans (Campling 2013); cited from earlier work.
The subject of experiment [8] is adhesion molecules E-selectin, ICAM-1 and VCAM-1. To be noted: Saeed 2005; cited from earlier work.
Experiment [9] in a line: Renal scar formation and trichrome collagen quantification after acute pyelonephritis. The conditions noted are these: 21 days following completion of antibiotic therapy; varenicline plus ceftriaxone vs ceftriaxone alone; p=0.001. The experiment is classed as in vivo, C3H/HeOuJ mice. The protocol:
To initiate pyelonephritis, the bladder was catheterized with a 24-gauge angiocatheter and a total volume of 100 μL of a phosphate-buffered saline containing […] colony forming units (CFU) of CFT073 uropathogenic Escherichia coli (UPEC) was then instilled.
Tissues were preserved in formalin for 72 hours then stored in ethanol. Sections were cut to a 5 μm thickness and stained with H&E or Masson trichrome. Photographs were obtained at 20× resolution with Olympus VS120 virtual slide microscope system. The images were then analyzed with ImageJ Fiji software in order to quantify collagen deposition as previously described (Chen 2017). As collagen deposition would be expected as long-term sequelae of IRI, the trichrome stains of the long-term specimen were examined. All artifacts from the staining process as well as gross collecting system were cropped from these images prior to analysis. A color deconvolution plugin was used to separate the trichrome images into the separate colors. Analysis was performed based upon the percentage of deposition of collagen in the green image compared to the overall area of the kidneys.
Tissues harvested 21 days following completion of antibiotic therapy were subjected to trichome staining to assess for global collagen deposition. After removing artifacts (to ensure only parenchyma was included in the analysis), a color deconvolution plugin was used for ImageJ to divide the images into the respective three colors of the trichrome stain. A threshold was set and collagen was quantified as a percentage of green color in respect to the area of the entire kidney (FIG. 13).

Experiment [10] deals with CFT073 uropathogenic Escherichia coli (UPEC). The conditions noted are these: kidneys harvested after the final dose of antibiotics; ceftriaxone 250 mg/kg s.c. twice daily for 5 days.
Method: As previously described, female C3H/HeOuJ mice were utilized due to a high incidence of vesicoureteral reflux (VUR) (Li 2017; Murawski 2010; Bowen 2013) and reliable creation of pyelonephritis following bladder inoculation. To initiate pyelonephritis, the bladder was catheterized with a 24-gauge angiocatheter and a total volume of 100 μL of a phosphate-buffered saline containing 108 colony forming units (CFU) of CFT073 uropathogenic Escherichia coli (UPEC) was then instilled. Following the initial bladder inoculation, pyelonephritis was allowed to progress untreated for 5 days.
Following the initial 5-day incubation period, 2 mice were sacrificed to confirm infection. The remaining mice were then treated with ceftriaxone alone (control) or ceftriaxone with varenicline (treatment). All mice received 250 mg/kg of subcutaneous ceftriaxone administered twice daily for a period of 5 days. Animals in the treatment group also received a concurrent twice-daily dose of intraperitoneal varenicline (1 mg/kg) during the first 48 hours of treatment. […] Animals were sacrificed at 14 days following the initial bladder inoculation to assess short-term outcomes, while long-term outcomes were assessed 30 days following initial bladder inoculation.
Setting [11] is: administered prior to testicular reperfusion.
Where [12] appears, read: administration prior to warm renal ischemia (Gigliotti 2013).

“Also recorded” adds a separate entry of the source.

α7nAChR, sequence (P36544 23-502): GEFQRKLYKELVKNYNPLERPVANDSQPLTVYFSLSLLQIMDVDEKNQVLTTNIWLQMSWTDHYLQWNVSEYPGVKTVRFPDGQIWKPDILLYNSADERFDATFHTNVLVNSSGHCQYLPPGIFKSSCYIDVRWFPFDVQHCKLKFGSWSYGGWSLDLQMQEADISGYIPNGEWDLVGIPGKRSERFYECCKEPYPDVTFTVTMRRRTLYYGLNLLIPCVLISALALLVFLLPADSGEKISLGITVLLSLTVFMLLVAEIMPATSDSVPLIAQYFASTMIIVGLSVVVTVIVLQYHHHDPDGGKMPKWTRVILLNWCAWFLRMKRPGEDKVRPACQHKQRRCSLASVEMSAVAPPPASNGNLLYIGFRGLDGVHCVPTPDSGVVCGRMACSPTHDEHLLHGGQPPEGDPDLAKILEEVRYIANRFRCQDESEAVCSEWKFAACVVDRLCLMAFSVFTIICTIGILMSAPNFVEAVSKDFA

For `Cc1ccc(-c2ncc(Cl)cc2-c2ccc(S(C)(=O)=O)cc2)cn1` [Etoricoxib], in [1] (setting [11]), the apoptosis entry is reported as “decrease apoptosis” and the oxidative stress result is reported as “decrease”.
Regarding `[Zn]` [Zinc], in experiment [1], the testicular myeloperoxidase activity result is on record as “decrease testicular myeloperoxidase activity” and the long term spermatogenesis entry was “preserve long term spermatogenesis”.
As to `O=c1cccc2n1C[C@@H]1CNC[C@H]2C1` [cytisine], the “CD45+ immune cells in the torsed testis” value in experiment [2] is “significantly decreased CD45+ immune cells; also recorded: decreases the number of CD45+ cells”. In [3], the “myeloperoxidase activity in testis” value was “decreased levels of myeloperoxidase activity” and the “reduced glutathione levels in testis” value was “increased levels reduced glutathione”. In addition, in experiment [4] (drug given an hour after the onset of torsion), the “testicular atrophy (weight of torsed testis vs contralateral control testis)” value is on record as “limited long term testicular atrophy”. Moreover, the “testicular atrophy (weight of torsed testis vs contralateral control testis)” value in experiment [4] (drug given an hour after the onset of torsion, listed as Cytisine) is listed as “limited testicular atrophy”. In addition, in experiment [4] (drug given an hour prior to torsion, p<0.05), the “testicular atrophy (weight of torsed testis vs contralateral control testis)” value was “significantly less testicular atrophy; also recorded: decreased testicular atrophy”. For the same compound, the “collagen content of testis (trichrome staining, percentage of collagen)” value in experiment [5] was “untreated group had significantly higher collagen content; also recorded: reduced histologic evidence of testicular fibrosis”. Moreover, in experiment [5] (listed as Cytisine), the “collagen content of testis (trichrome staining, percentage of collagen)” value is listed as “significantly higher percentage of collagen in the untreated animals”. In experiment [6], the “relative expression of collagen 1 (Col1)” value was “reduced the expression; also recorded: significantly decreased”, the “relative expression of collagen 3 (Col3)” value was “reduced the expression; also recorded: significantly decreased”, the “relative expression of smooth muscle actin (Sma)” value is on record as “reduced the expression; also recorded: significantly decreased” and the “relative expression of vimentin (Vim)” value is on record as “reduced the expression; also recorded: significantly decreased”. Moreover, in [6] (listed as Cytisine), the “relative expression of collagen 1 (Col1)” value was “significantly decreased”, the “relative expression of collagen 3 (Col3)” value was “significantly decreased”, the “relative expression of smooth muscle actin (Sma)” value is listed as “significantly decreased” and the “relative expression of vimentin (Vim)” value was “significantly decreased”. Also, the “expression of pro-fibrotic genes / genetic markers of testicular fibrosis” value in experiment [6] (long term (30 day) outcome, genes not itemised) is “decreased expression of pro-fibrotic genes”. In addition, in experiment [7] (setting [12]), the “acute immune infiltrate after warm renal ischemia” value is recorded as “reduced the acute immune infiltrate”, the “long term renal fibrosis after warm renal ischemia” value is given as “prevented long term renal fibrosis” and the “long term renal function after warm renal ischemia” value is listed as “preserved long term renal function”. Moreover, on α7nAChR, the “activation of α7nAChR at clinically reached concentrations” value was “do not activate α7nAChR”.
With `COc1cc(C(C)=O)ccc1O` [Apocynin], in experiment [1], the testicular myeloperoxidase activity result is recorded as “decrease testicular myeloperoxidase activity” and the long term spermatogenesis result is given as “preserve long term spermatogenesis”.
For the compound `CN1CCC[C@H]1c1cccnc1` [nicotine], in [7] (mouse, after renal artery ligation (Sadis 2007, Yeboah 2008)), the “protection of the kidney from IRI” value is “protects the mouse kidney from IRI”. Also, the “activation of α7nAChR at clinically reached concentrations” value at α7nAChR is “do not activate α7nAChR”. Moreover, the “expression of adhesion molecules such as E-selectin, ICAM-1 and VCAM-1” value in experiment [8] was “decreasing the expression of adhesion molecules”.
Turning to `CO/N=C(\C(=O)N[C@@H]1C(=O)N2C(C(=O)O)=C(CSc3nc(=O)c(=O)[nH]n3C)CS[C@H]12)c1csc(N)n1` [ceftriaxone], in experiment [9], the “collagen deposition in the kidneys (percentage of green pigment per area of entire kidney)” value was “significantly higher”. Moreover, the “bacterial growth from cultured kidneys” value in experiment [10] is listed as “lack of bacterial growth”.
